The target in data set [1] is T1, human purulent sputum elastase (Homo sapiens, UniProt P08246).
T1 construct: purchased Elastin Products Co; host or cells: human purulent sputum
T1 sequence (P08246 30-247 limits assumed): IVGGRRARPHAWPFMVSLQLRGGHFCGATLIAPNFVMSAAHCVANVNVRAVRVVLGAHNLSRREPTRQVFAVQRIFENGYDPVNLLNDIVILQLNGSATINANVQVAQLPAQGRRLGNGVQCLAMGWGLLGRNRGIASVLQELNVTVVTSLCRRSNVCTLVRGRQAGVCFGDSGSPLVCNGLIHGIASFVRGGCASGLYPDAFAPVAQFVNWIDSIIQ
Nature of the data set: Human purulent sputum elastase-inhibitory activity (hydrolysis of methoxysuccinyl-peptidyl-p-nitroanilide, absorbance at 410 nm). It counts as biochemical. As to conditions: for IC50: Table 10, procedure of Example 19 (A). An excerpt: Human purulent sputum elastase is believed to be the same enzyme as human leukocyte elastase, as described by Tomashi et al. (J. BIOL. CHEM., vol. 252, pages 1917 to 1924 (1977)), and can be easily obtained commercially.
The extent of the hydrolysis of AAPVpNA by human purulent sputum elastase can be easily determined by measuring the amount of p-nitroaniline released from AAPVpNA, by a spectrophotometer. Then, by comparing the extent of hydrolysis of AAPVpNA by the human purulent sputum elastase in the absence of a compound to be tested with that in the presence of the compound to be tested in various concentrations, a concentration (IC50) of the compound to be tested necessary to inhibit 50% of the elastase reaction can be determined.
(§1) Inhibitory activities of 7-(N-carbobenzoxy-L-phenylalanyl)amino-2-isopropylamino-5-methyl-4H-3,1- benzoxazin-4-one for human purulent sputum elastase, for α-chymotrypsin, for cathepsin G, for trypsin, for thrombin and for plasmin were determined by the following methods and the results are shown in Table 9.
The testing buffer (pH7.5) consisted of 0.1M N-2-hyiroxyethylpiperazine-N'-2-ethanesulfonic acid, 1M sodium chloride and 0.1% w/v polyethylene glycol 6000.
Human purulent sputum elastase was obtained from Elastin Products Co., and adjusted to 1.5×10^-8 M in the testing buffer.
Methoxysuccinyl-[…]-p-nitroanilide was obtained from Bachem Co., and made to 10 mM in dimethyl sulfoxide.
Procedure To 2.4ml of testing buffer in a cell set at 37° in a spectrophotometer (Hitachi U-3200) with a temperature controlled cell holder were added 25 μl of substrate solution and 25 μl of acetonitrile with or without inhibitory compounds, and the resultant mixture was stirred. Reactions were initiated by addition of 50 μl of the enzyme solution and hydrolysis of the substrate was monitored by measuring a change of light absorbance at 410 nm. The concentration (IC50) at which 50% of the activity of human purulent sputum elastase was inhibited was determined for each inhibitory compound from a steady state velocity of the substrate hydrolysis.
(§2) In each of Examples 20 to 37 and Comparative Examples 1 to 4, the same experimental procedures as those described in Example 19, items (A) and (B) were used for determination of enzyme inhibitory activity, except that the compound indicated in Table 10 was tested as an inhibitory compound.

In data set [2] the target is T2, bovine pancreas α-chymotrypsin (Bos taurus, UniProt P00766).
T2 construct: bovine pancreas α-chymotrypsin; purchased Sigma Co; host or cells: bovine pancreas
In words: α-chymotrypsin-inhibitory activity (hydrolysis of succinyl-Ala-Ala-Pro-Phe-p-nitroanilide). The format is biochemical. As to conditions: for IC50 / Selectivity: Table 10; for IC50: procedure of Example 19 (B); for Selectivity: ratio of IC50 for bovine α-chymotrypsin to IC50 for human purulent sputum elastase. Here is the method:
An in vitro test similar to that mentioned above can be applied to chymotrypsin.
As a chymotrypsin, α-chymotrypsin of bovine pancreas, which is readily available commercially, is used. […] The extent of the hydrolysis of AAPFpNA is measured in the absence of a compound to be tested or in the presence of the compound in various concentrations thereof, and thus a concentration (IC50) of the compound necessary to inhibit 50% of the enzyme reaction can be determined.
as §1
The same procedures as those described in the above item (A) for the human purulent sputum elastase were carried out, with the following exception.
The enzyme-testing tuffer solution contained 2×10^-8 M bovine pancreas α-chymotrypsin (available from Sigma Co.). The synthetic substrate was succinyl-L-alanyl-L-alanyl-L-prolyl-L-henylalanyl-p-nitroanilide (available from Bachem Co.).
An IC50 for the α-chymotrypsin was determined in the same manner as mentioned above. (C) Determination of human cathepsin G-inhibitory activity
as §2
In Table 10, the item "Selectivity" refers to a ratio of an IC50 value for bovine α-chymotrypsin to an IC50 value for human purulent sputum elastase. The larger the value of the ratio, the higher the selectivity of the inhibitory activity for elastase.

For another data set, the target named is T3, human thrombin (Homo sapiens, UniProt P00734).
T3 construct: human thrombin; purchased Daiichi Kagaku Yakuhin K.K
In words: Thrombin-inhibitory activity. The format is biochemical. The following applies: Table 9. Here is the method:
as §1
The same procedures as those described in item (A) were carried out except that the enzyme-testing buffer solution contained 0.04 μkat/ml human thrombin (available from Daiichi Kagaku Yakuhin K.K.) and the substrate consisted of D-phenylalanyl-pipecolyl-arginyl-p-nitroanilide (available from Daiichi Kagaku Yakuhin K.K.).
An IC for the human thrombin was determined in the same manner as mentioned above.

The target in the next data set is T4, human plasmin (Homo sapiens, UniProt P00747).
T4 construct: human plasmin; purchased Daiichi Kagaku Yakuhin K.K
Nature of the data set: Plasmin-inhibitory activity. It counts as biochemical. The following applies: Table 9. Here is the method:
as §1
The same procedures as those described in item (A) were carried out except that the enzyme testing buffer solution contained 0.6 CasU/ml human plasmin (available from Daiichi Kagaku Yakuhin K.K.) and the substrate consisted of D-valyl-L-leucyl-L-lysyl-p-nitro-anilide (available from Daiichi Kagaku Yakuhin K.K.).
An IC50 for the human plasmin was determined in the same manner as mentioned above.

A short description of data set [3]: Stability in human serum (37° C., HPLC peak area). It counts as in vitro ADME. Here is the method: A solution of […] of 7-(N-carbobenzoxy-L-phenylalanyl)amino-2-isopropylamino-5-methyl-4H-3,1-benzoxazin-4-one in 50 μl acetonitrile was mixed with 0.45 ml of human serum, and the resultant mixture was allowed to stand at a temperature of 37° C. The mixture was subjected to treatment with a Sep-pac C18 cartridge (trademark, made by Waters Cc.) for removal of protein, and a portion of the resultant acetonitrile-eluted fraction was subjected to a high speed liquid chromatographic analysis.

Where [4] appears, read: Table 9, ratio of IC50 for the protease to IC50 for human purulent sputum elastase.
The mark [5] stands for this setting: ratio of IC50 for the protease to IC50 for human purulent sputum elastase.

These results are taken from patent US4980287A, “4H-3,1-benzoxazin-4-one compounds and pharmaceutical compositions thereof for the inhibition of serine proteases” (Teijin Limited, priority 1987, dated 1990).

T4 sequence (P00747 581-810 limits assumed): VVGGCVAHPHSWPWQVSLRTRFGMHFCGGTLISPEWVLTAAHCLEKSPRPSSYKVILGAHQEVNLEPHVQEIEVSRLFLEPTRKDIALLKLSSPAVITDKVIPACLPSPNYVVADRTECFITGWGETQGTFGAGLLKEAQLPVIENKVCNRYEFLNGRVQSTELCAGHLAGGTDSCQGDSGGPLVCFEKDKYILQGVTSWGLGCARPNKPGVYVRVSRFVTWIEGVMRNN
T4 sequence (P00747 97-580 partner limits assumed): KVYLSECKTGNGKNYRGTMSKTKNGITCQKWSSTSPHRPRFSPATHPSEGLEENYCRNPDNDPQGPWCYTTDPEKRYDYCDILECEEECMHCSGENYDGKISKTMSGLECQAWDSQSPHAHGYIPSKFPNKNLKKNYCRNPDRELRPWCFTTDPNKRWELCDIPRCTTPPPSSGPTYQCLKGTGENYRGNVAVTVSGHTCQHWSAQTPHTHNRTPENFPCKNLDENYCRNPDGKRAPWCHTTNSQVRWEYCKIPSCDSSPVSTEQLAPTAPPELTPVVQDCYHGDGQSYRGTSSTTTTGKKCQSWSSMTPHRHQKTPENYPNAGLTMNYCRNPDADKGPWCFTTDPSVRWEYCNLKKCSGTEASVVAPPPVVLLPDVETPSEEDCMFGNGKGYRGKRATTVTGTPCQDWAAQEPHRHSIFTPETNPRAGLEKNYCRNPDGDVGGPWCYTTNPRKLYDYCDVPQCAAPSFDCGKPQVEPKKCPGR

Consider `Cc1cccc2nc(OC(C)C)oc(=O)c12` [compound 4, reference compound], for which, in data set [1], 41 nM corresponded to half-maximal inhibition (IC50). Further, in data set [2], the concentration for half-maximal inhibition (IC50) (commonly the point on the concentration scale where inhibition reaches its midpoint) is 120 nM and the Selectivity was 2.9.
The compound `CC(C)Oc1nc2cc(NC(=O)[C@@H](NC(=O)[C@H](Cc3ccccc3)NC(=O)OCc3ccccc3)C(C)C)ccc2c(=O)o1` [Example 33] yielded an IC50 in data set [1] of 21 nM. In data set [2], the midpoint of inhibition, the IC50, lay at 180 nM and the Selectivity was 5.6.
As for `Cc1cc(NC(=O)[C@H](Cc2ccccc2)NC(=O)OCc2ccccc2)cc2nc(OC(C)C)oc(=O)c12` [Example 34, 7-(N-carbobenzoxy-L-phenylalanyl)amino-2-isopropoxy-5-methyl-4H-3,1-benzoxazin-4-one], the IC50 in data set [1] came to 0.55 nM; in data set [2], 10 nM. Moreover, the Selectivity in data set [2] came out at 18.
On to `Cc1nc2cc(NC(=O)[C@H](Cc3ccccc3)NC(=O)OCc3ccccc3)ccc2c(=O)o1` [Example 37, 7-(N-carbobenzoxy-L-phenylalanyl)amino-2-methyl-4H-3,1-benzoxazin4-one], for which, in data set [1], the IC50 came to 5100 nM. Moreover, in data set [2], the IC50 amounted to 160000 nM and the Selectivity is reported as 31.
The compound `CC(C)Oc1nc2cc(NC(=O)[C@@H](NC(=O)[C@@H]3CCCN3C(=O)OCc3ccccc3)C(C)C)ccc2c(=O)o1` [Example 32] had an IC50 in data set [1] of 20 nM. Further, in data set [2], the concentration for half-maximal inhibition (IC50) turned out to be 120 nM and the Selectivity stood at 5.8.
On to `O=C(Nc1ccc2c(=O)oc(C(F)(F)F)nc2c1)[C@@H]1CCCN1C(=O)OCc1ccccc1` [Example 20, 7-(N-carbobenzoxy-L-prolyl)amino-2-trifluoromethyl-4H-3,1-benzoxazin-4-one], for which inhibition in data set [1] was half-maximal at 2200 nM (IC50). Further, in data set [2], the concentration for half-maximal inhibition (IC50) turned out to be 17000 nM and the Selectivity is 7.7.
Consider `CC(C)Oc1nc2cc(NC(=O)[C@@H](NC(=O)OCc3ccccc3)C(C)C)ccc2c(=O)o1` [Example 23], for which the figures for the IC50 in data set [1] and in data set [2] were 24 nM and 160 nM, respectively. Further, in data set [2], the Selectivity was found to be 6.6.
Take `Cc1cc(NC(=O)[C@H](Cc2ccccc2)NC(=O)OCc2ccccc2)cc2nc(NC(C)C)oc(=O)c12` [Example 36, 7-(N-carbobenzoxy-L-phenylalanyl)amino-5-methyl-2-isopropylamino-4H-3,1-benzoxazin-4-one]: in data set [1] (setting [4]), the “Selectivity, human purulent sputum elastase” value came to 1. In addition, the IC50 in data set [1] is 1.3 nM; in data set [2], 25 nM; against human thrombin (0.04 μkat/ml enzyme), greater than 100000 nM; against human plasmin (0.6 CasU/ml enzyme) it was 75000 nM. In addition, the “Selectivity, bovine pancreas α-chymotrypsin” value in data set [2] (setting [4]) turned out to be 19. The Selectivity in data set [2] came out at 19. The “Selectivity, human thrombin” value at human thrombin (setting [5]) is > 100,000. Further, the “Selectivity, human plasmin” value on human plasmin (setting [5]) was 58,000. The half-life (in general, the time needed for the level to fall by half in the phase considered) in data set [3] is 2.5 h.
`CC(C)Oc1nc2cc(NC(=O)[C@@H]3CCCN3C(=O)OCc3ccccc3)ccc2c(=O)o1` [Example 21, 7-(N-carbobenzoxy-L-prolyl)amino-2-isopropoxy-4H-3,1-benzoxazin-4-one] had a concentration for half-maximal inhibition (IC50) in data set [1] of 44 nM. In addition, in data set [2], the IC50 worked out at 170 nM and the Selectivity was determined as 3.9.
As for `CC(C)Oc1nc2cc(NC(=O)[C@@H]3CCCN3C(=O)OC(C)(C)C)ccc2c(=O)o1` [Example 28], in data set [1], the half-maximal inhibitory concentration (IC50) was found to be 35 nM. Further, in data set [2], half-maximal inhibition (IC50) was put at 130 nM and the Selectivity is recorded as 3.7.
The compound `CC(=O)N1CCC[C@H]1C(=O)Nc1ccc2c(=O)oc(OC(C)C)nc2c1` [Example 30] yielded an IC50 in data set [1] of 130 nM. For the same compound, in data set [2], the half-maximal inhibitory concentration (IC50) stood at 490 nM and the Selectivity is recorded as 3.8.
The corresponding values for `CC(C)Oc1nc2cc(NC(=O)[C@H](C)NC(=O)OCc3ccccc3)ccc2c(=O)o1` [Example 22] are 77 nM, 370 nM and 4.8.
Consider `CC(C)Oc1nc2cc(NC(=O)[C@H](CCC(=O)OCc3ccccc3)NC(=O)OCc3ccccc3)ccc2c(=O)o1` [Example 26], for which the half-inhibitory concentration (IC50) in data set [1] was 26 nM; in data set [2], greater than 500 nM. In data set [2], the Selectivity is recorded as greater than 20.
In the case of `CC(C)Oc1nc2cc(NC(=O)[C@H](CCCCNC(=O)OCc3ccccc3)NC(=O)OCc3ccccc3)ccc2c(=O)o1` [Example 25], the IC50 in data set [1] amounted to 14 nM; in data set [2], 580 nM. Also, the Selectivity in data set [2] was 41.
Consider `CC(C)Oc1nc2cc(NC(=O)[C@@H](Cc3ccccc3)NC(=O)OCc3ccccc3)ccc2c(=O)o1` [Example 27], for which, in data set [1], the IC50 came to 41 nM. For the same compound, in data set [2], the half-maximal inhibitory concentration (IC50) amounted to 490 nM and the Selectivity turned out to be 12.
In the case of `CC(C)Oc1nc2cc(NC(=O)[C@@H]3CCCN3C(=O)[C@H](C)NC(=O)OCc3ccccc3)ccc2c(=O)o1` [Example 31], the concentration for half-maximal inhibition (IC50) stood at 32 nM in data set [1] and 180 nM in data set [2]. Moreover, the Selectivity in data set [2] was 5.6.
As to `CC(C)Oc1nc2cc(NC(=O)[C@H](Cc3ccccc3)NC(=O)OCc3ccccc3)ccc2c(=O)o1` [Example 24], the midpoint of inhibition in data set [1], the IC50, lay at 11 nM. Also, in data set [2], the IC50 was determined as 340 nM and the Selectivity is 31.
In turn, `CC(C)Oc1nc2cc(NC(=O)[C@H](Cc3ccccc3)NC(=O)OC(C)(C)C)ccc2c(=O)o1` [Example 29] yielded an IC50 in data set [1] of 46 nM. In addition, in data set [2], the IC50 was 94 nM and the Selectivity is listed as 2.0.
Turning to `O=c1oc(C(F)(F)F)nc2ccccc12` [compound 1, reference compound], the IC50 in data set [1] was found to be 6200 nM. Besides, in data set [2], the half-inhibitory concentration (IC50) amounted to 680 nM and the Selectivity is on record as 0.10.
The compound `CC(C)Oc1nc2ccccc2c(=O)o1` [compound 2, reference compound] displayed an IC50 in data set [1] of 49 nM. In data set [2], half-maximal inhibition (IC50) was put at 22 nM and the Selectivity is recorded as 0.44.
Take `CC(=O)Nc1ccc2c(=O)oc(OC(C)C)nc2c1` [compound 3, reference compound]: the 50% inhibitory concentration (IC50) in data set [1] was 58 nM; in data set [2] it was 32 nM. In data set [2], the Selectivity is recorded as 0.55.
